Measurements: paper PMC3396687, “Moonlighting Peptides with Emerging Function” (PLoS ONE, 2012)
Where two headings read alike, the source gives them in different places. Where no end group is shown, it is not given here.

What was measured:
[1] = system: Human foreskin fibroblasts (HFF) cells; assay: Toxicity against primary cultures of human cells (LIVE/DEAD)
Description: Human foreskin fibroblasts (HFF) cells were grown in high glucose DMEM (Invitrogen, Carlsbad, CA) supplemented with 10% fetal bovine serum (Sigma, St. Louis, MO) and penicillin/streptomycin 100 U/ml (Invitrogen, Carlsbad, CA). The cultures were incubated at 37 °C in 95% air and 5% carbon dioxide with 95% humidity. After 24 hr of plating, 15 micro liters of a stock solution of each peptide was added and 72 hr later cell viability was estimated using the LIVE/DEAD cytotoxicity kit (Molecular Probes L-3224, Invitrogen, Carlsbad, CA) according to manufacturer instructions (4 μM Eth D-1 and 2 μM Calcein AM were used). The esterase substrate calcein AM gives a green fluorescent product when hydrolyzed; therefore, cells stained green have esterase activity and consequently an intact membrane capable of retaining the esterase product. Ethidium homodimer-1, an impermeable dye that binds DNA, enters only into compromised cellular membranes commonly observed in death cells.
All these concentrations are the dry weight of each peptide.
Images were taken on a Nikon Eclipse TE300 fluorescence microscope from representative fields. Each peptide was tested in two independent assays, each performed in triplicates.

isolated mitochondria = assay: Mitochondrial swelling; type: biochemical, Saccharomyces cerevisiae; settings: absorbance at 540 nm; IP1 117 µM, fIP1 100 µM, α-pheromone 160 µM (Figure 1C)
Description: We isolated mitochondria as described in Supporting Information S1 (see section I.2). Swelling of mitochondria was determined as reported before. Briefly, fresh mitochondria were diluted in 1 mL of 0.3 M mannitol, 5 mM MES, pH 6.8 (TEA) and 5 µL of ethanol. After 20 seconds, when optical density was stable, the peptides were added. The absorbance at 540 nm was recorded in a DW2 Aminco spectrophotometer (Olis, Inc, USA) in a split mode with magnetic stirring. A decrease in the absorbance was indicative of mitochondrial swelling. To determine the integrity of mitochondrial membranes, 10% of PEG 10 kDa (final concentration) was used to induce water release from mitochondria.
Mitochondria were obtained as described before. Briefly, yeast was incubated in YPD preculture medium for 24 h at 30° C, with agitation at 250 rpm, then the cells were cultured in YPlac at 30° C for 24 h at 250 rpm to improve respiration. Cells were collected and washed twice by centrifugation. The cells were suspended in cold isolating medium (5 mM MES, 0.6 M mannitol, 0.1% bovine serum albumin; the pH was adjusted to 6.8 with triethanolamine). The cells were disrupted into a Bead-Beater cell homogenizer (Biospec Products, USA) with 0.5 mm diameter glass beads, using three 20 seconds pulses separated by 40 seconds intervals. […] Protein concentration was determined by the Biuret method.

[2] = system: MatA cells from Saccharomyces cerevisiae (BY4741); assay: Antifungal activity (optical density growth curves); type: cell-based; settings: YPD, 30°C, 24 h, OD and CFU; IP1 10 µM, fIP1 60 µM (Figure 3)
Description: (§1) An early stationary culture for every essay was obtained from a single colony growing overnight in YPD medium. This culture was used to inoculate a fresh YPD medium to reach 0.04 O.D. in a total volume of 200 µL. Every peptide and strain were tested in 96 well plates, each well containing 200 µL, incubating at 30°C with shaking using a Bioscreen C (Oy Growth Curves Ab Ltd, Finland). The activity of these peptides on each strain was determined by following the cultures during 24 hrs and recording the O.D. every hour. Lack of change in O.D. measured during 24 hours was indicative of antifungal activity.

E. coli (DH10B) = type: cell-based, Escherichia coli; settings: for MIC: LB medium, 37°C, 10 h, OD 600 nm, lowest concentration where no visible growth occurred, four independent experiments; for antibacterial activity (in words): LB, see Table S2, Figure 1A and 1B
Description: To evaluate the antibacterial activity of the Iztli peptides, the Escherichia coli DH1OB strain, Δ(mrr-hsd RMS-mcrBC) mcrA recA1 was used.
Serial dilutions of peptides were prepared in sterilized water. These concentrations are reported as the dry weight of each peptide. To determine the actual concentration of these peptides in solution, we estimated the molar absorption coefficient from the absorbance of each peptide at 214 nm using a spectrophotometer HP8452, kindly provided by Dr. Armando Gomez-Puyou. Then, the concentration of each peptide was calculated as: C = A/(L*MAC); where C: concentration (M), A: absorbance (arbitrary unit), L: length of the path of the spectrophotometer cell (cm) and MAC: the molar absorption coefficient (M^−1cm^−1).
The antibacterial activity of the synthetic peptides was examined in sterile 100-well plates (HC2 Pat. Pend., Finland) in a final volume of 200 µl as follows: aliquots (25 µl) of a suspension containing bacteria at a concentration of 10^5 CFU/mL in LB medium were added to 75 µl of water containing the peptide. The mixture was completed by the addition of 100 µl of 2×-concentrated LB medium. The plates were incubated at 37°C with constant orbital shaking for 10 h (at a rate specified by the equipment provider as “High”). Microbial growth was automatically determined by reading every 60 minutes the optical density at 600 nm with an OY Microplate Reader (Bioscreen C, Finland).
The minimum inhibitory concentration (MIC) was determined as the lowest concentration where no visible growth occurred. At least three different concentrations were tested for each peptide to find the corresponding MIC. All MICs were determined from four independent experiments. […]

bacteria = settings: values marked (*), ref 36 ([3] in supplement, del Rio et al., 2001); cited from earlier work
Source text: Supplement pone.0040125.s019.doc, table 1: Supplementary Table S2. Designed selective antibacterial peptides | column: MIC (µM)

human cells = settings: cited from earlier work
Source text: Supplement pone.0040125.s019.doc, table 1: Supplementary Table S2. Designed selective antibacterial peptides | column: Toxicity (µM)

[3] = system: null mutant of the STE4 gene (BY4741 MATa ∆ste4); assay: Screening for resistant gene deletions: STE4 null mutant; type: cell-based, Saccharomyces cerevisiae; settings: 10 µM, Table S1 and Figure S1
Description: as §1
(§2) The cultures were prepared as in the antifungal activity assay described before (see above). To identify the strains lacking a gene required to inhibit in at least 50% the normal growth of the cells, the area under the growth curve (AUC) was calculated using software designed ad hoc in our laboratory. Thus, the ratio of the AUCs of the cells in the absence and in the presence of the peptide was determined; any strain rendering a ratio value between 1.0 and 2.0 was considered to carry a deletion of a critical gene.

[4] = system: S. cerevisiae WT (BY4741); assay: Area under the growth curve (AUC), wild type control of gene screen; type: cell-based, Saccharomyces cerevisiae; settings: 10 µM peptide, 24 h growth curve; control value of Figure S1
Description: as §1, §2

[5] = 72 hr exposure, calcein AM / ethidium homodimer-1 staining
[6] = HFF cells, 72 hr exposure, LIVE/DEAD kit, > means no toxicity at the tested concentration, two independent assays in triplicates

Row | Compound | toxicity on HFF cells (in words) [1, 5] | Toxicity [1, 6] [µM] | MIC (E. coli (DH10B)) [µM] | further results
1 | LKKLKLLLKLL [PH(CeMa)1] |  |  |  | Toxicity [1]: >90 µM; toxicity on HFF cells (in words) [1]: none of the peptides induced cell death
2 | KFLNRF [fIP1, the six residues at the N-terminus of IP1, control peptide] |  |  |  | mitochondrial swelling activity (isolated mitochondria): did not exhibit any activity; antifungal (killing) activity [2]: did not exhibit any activity
3 | HSAKKFGK [PH(SCAP*)5] | not toxic | >500 | >300 | 
4 | KFLHSAKK [PH(SCAP*)3] | not toxic | >500 | >300 | 
5 | LKKLLKLLL [PH(Magainin)1] |  |  |  | Toxicity [1]: >120 µM; toxicity on HFF cells (in words) [1]: none of the peptides induced cell death
6 | GKFLHSAK [PH(SCAP*)2] | not toxic | >500 | >300 | 
7 | KWKLFKKIEKVGQNIRDGIIKAGPAVAVVGQATQIAK (Cecropin-A; UniProt P01507 27-63, looked up) [Cecropin A] |  |  |  | MIC (bacteria): 0.1 µM; Toxicity (human cells): >50 µM
8 | FLHSAKKF [PH(SCAP*)4] | not toxic | >500 | >300 | 
9 | KWKLFKKI [PH(SCAP*)1] | not toxic | >460 |  | 
10 | GKFLHSAKKFGK [PH(SCAP*)6] | not toxic | >500 | >300 | 
11 | GIGKFLHSAKKFGKAFVGEIMNS [Magainin 2] |  |  |  | MIC (bacteria): 16 µM; Toxicity (human cells): >170 µM
12 | RRLKDFWHWLQLKPGQPMY [IP2, 19-residue Iztli peptide: α-pheromone with 6 residues added at the N-terminus] |  |  | 20 | Toxicity [1]: >36 µM; toxicity on HFF cells (in words) [1]: no toxicity; antibacterial activity (in words) (E. coli (DH10B)): presented anti-bacterial activity
13 | CSCC[C@H](NC(=O)[C@@H]1CCCN1C(=O)[C@H](CCC(N)=O)NC(=O)CNC(=O)[C@@H]1CCCN1C(=O)[C@H](CCCCN)NC(=O)[C@H](CC(C)C)NC(=O)[C@H](CCC(N)=O)NC(=O)[C@H](CC(C)C)NC(=O)[C@H](Cc1c[nH]c2ccccc12)NC(=O)[C@H](Cc1c[nH]cn1)NC(=O)[C@H](Cc1c[nH]c2ccccc12)NC(=O)[C@H](Cc1ccccc1)NC(=O)[C@H](CCCNC(=N)N)NC(=O)[C@H](CC(N)=O)NC(=O)[C@H](CC(C)C)NC(=O)[C@H](Cc1ccccc1)NC(=O)[C@@H](N)CCCCN)C(=O)N[C@@H](Cc1ccc(O)cc1)C(=O)O [IP1] | no toxicity |  |  | killing activity on STE4 null mutant [3]: resistant; area under the growth curve (AUC) [4]: 0.09; antibacterial activity (in words) (E. coli (DH10B)): presented anti-bacterial activity
